The values that follow are results of earlier work, collected in article PMC7852567, “A first-in-human phase 1 and pharmacological study of TAS-119, a novel selective Aurora A kinase inhibitor in patients with advanced solid tumours” (British Journal of Cancer, 2020).

This series deals with ROS. The note with it: cited from earlier work.

Turning to `COc1cc(Nc2ncc3c(n2)-c2ccc(Cl)cc2C(c2c(F)cccc2OC)=NC3)ccc1C(=O)O` [Alisertib], the “mean inhibition of ROS” value is 80%.
